# Test results as given in US11505543B2, “4-oxo-3,4-dihydroquinazoline compounds as inhibitors of human immunodeficiency virus replication” (VIIV HEALTHCARE UK (NO.5) LIMITED, priority 2018, dated 2022).
# What was measured:
# [1] = Compound cytotoxicity, XTT-based colorimetric assay; type: cell-based; conditions: human, uninfected MT2 cells, day 4, XTT
# Procedure, shortened: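 Run under the antiviral-assay protocol but without virus. Viability was read on day 4 and CC50 values were derived from the readout.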
# [2] = test system: recombinant NL4-3 virus (nef section replaced with Renilla luciferase gene) in MT-2 cells; test: HIV cell culture assay (antiviral activity, luciferase readout); type: cell-based; conditions: Renilla, NL43, MT-2 cells infected for 4-5 days with recombinant NL4-3 Renilla luciferase virus, serial dilutions of compound
# Procedure, shortened: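 EC50 was derived by median-effect curve fitting of luciferase activity. The signal comes from MT-2 cells infected for 4–5 days with 293T-produced NL4-3 reporter virus, nef partly replaced by Renilla luciferase, in the presence of serially diluted compound.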
SMILES,CC50 at 4 day [1],EC50 [2]
"Cc1n[nH]c(C)c1-c1ccc2c(=O)n(-c3ccc(Cl)c4c(NS(C)(=O)=O)nn(C)c34)c([C@H](Cc3cc(F)cc(F)c3)NC(=O)Cn3nc(C(F)F)c4c3C(F)(F)[C@@H]3C[C@H]43)nc2c1 (atropisomer, axis not shown; (aR)) [Example 89, N-((S)-1-(3-(4-chloro-1-methyl-3-(methylsulfonamido)-1H-indazol-7-yl)-7-(3,5-dimethyl-1H-pyrazol-4-yl)-4-oxo-3,4-dihydroquinazolin-2-yl)-2-(3,5-difluorophenyl)ethyl)-2-((3bS,4aR)-3-(difluoromethyl)-5,5-difluoro-3b,4,4a,5-tetrahydro-1H-cyclopropa[3,4]cyclopenta[1,2-c]pyrazol-1-yl)acetamide]",> 1000 nM,3.4 nM
"Cn1nc(NS(C)(=O)=O)c2c(Cl)ccc(-n3c([C@H](Cc4cc(F)cc(F)c4)NC(=O)Cn4nc(C(F)F)c5c4C(F)(F)[C@@H]4C[C@H]54)nc4cc(-c5ccc6c(c5)CCCO6)ccc4c3=O)c21 (atropisomer, axis not shown; (aR)) [Example 28, N-((S)-1-(3-(4-chloro-1-methyl-3-(methylsulfonamido)-1H-indazol-7-yl)-7-(chroman-6-yl)-4-oxo-3,4-dihydroquinazolin-2-yl)-2-(3,5-difluorophenyl)ethyl)-2-((3bS,4aR)-3-(difluoromethyl)-5,5-difluoro-3b,4,4a,5-tetrahydro-1H-cyclopropa[3,4]cyclopenta[1,2-c]pyrazol-1-yl)acetamide]",> 1000 nM,3.2 nM
"Cn1nc(NS(C)(=O)=O)c2c(Cl)ccc(-n3c([C@H](Cc4cc(F)cc(F)c4)NC(=O)Cn4nc(C(F)F)c5c4C(F)(F)[C@@H]4C[C@H]54)nc4cc(-c5cc(F)cc(F)c5)ccc4c3=O)c21 (atropisomer, axis not shown; (aR)) [Example 103, N-((S)-1-(3-(4-chloro-1-methyl-3-(methylsulfonamido)-1H-indazol-7-yl)-7-(3,5-difluorophenyl)-4-oxo-3,4-dihydroquinazolin-2-yl)-2-(3,5-difluorophenyl)ethyl)-2-((3bS,4aR)-3-(difluoromethyl)-5,5-difluoro-3b,4,4a,5-tetrahydro-1H-cyclopropa[3,4]cyclopenta[1,2-c]pyrazol-1-yl)acetamide]",> 1000 nM,0.88 nM
"Cc1cc(Cl)ccc1-c1ccc2c(=O)n(-c3ccc(S(=O)(=O)N4CCOCC4)cc3)c([C@H](Cc3cc(F)cc(F)c3)NC(=O)Cn3nc(C(F)F)c4c3C(F)(F)[C@@H]3C[C@H]43)nc2c1 [Example 15, N-((S)-1-(7-(4-chloro-2-methylphenyl)-3-(4-(morpholinosulfonyl)phenyl)-4-oxo-3,4-dihydroquinazolin-2-yl)-2-(3,5-difluorophenyl)ethyl)-2-((3bS,4aR)-3-(difluoromethyl)-5,5-difluoro-3b,4,4a,5-tetrahydro-1H-cyclopropa[3,4]cyclopenta[1,2-c]pyrazol-1-yl)acetamide]",> 1000 nM,43 nM
"O=C(Cn1nc(C(F)F)c2c1C(F)(F)[C@@H]1C[C@H]21)N[C@@H](Cc1cc(F)cc(F)c1)c1nc2cc(-c3ccc(F)cc3F)ccc2c(=O)n1-c1ccc(S(=O)(=O)N2CCOCC2)cc1 [Example 22, 2-((3bS,4aR)-3-(difluoromethyl)-5,5-difluoro-3b,4,4a,5-tetrahydro-1H-cyclopropa[3,4]cyclopenta[1,2-c]pyrazol-1-yl)-N-((S)-2-(3,5-difluorophenyl)-1-(7-(2,4-difluorophenyl)-3-(4-(morpholinosulfonyl)phenyl)-4-oxo-3,4-dihydroquinazolin-2-yl)ethyl)acetamide]",> 1000 nM,7.9 nM
"Cc1cccc(C)c1-c1ccc2c(=O)n(-c3ccc(S(=O)(=O)N4CCOCC4)cc3)c([C@H](Cc3cc(F)cc(F)c3)NC(=O)Cn3ccc(C4CC4)n3)nc2c1 [Example 49, (S)-2-(3-cyclopropyl-1H-pyrazol-1-yl)-N-(2-(3,5-difluorophenyl)-1-(7-(2,6-dimethylphenyl)-3-(4-(morpholinosulfonyl)phenyl)-4-oxo-3,4-dihydroquinazolin-2-yl)ethyl)acetamide]",> 1000 nM,30 nM
"Cc1cc(F)ccc1-c1ccc2c(=O)n(-c3ccc(Cl)c4c(NS(C)(=O)=O)nn(C)c34)c([C@H](Cc3cc(F)cc(F)c3)NC(=O)Cn3nc(C(F)F)c4c3C(F)(F)[C@@H]3C[C@H]43)nc2c1 [Example 188, N-((S)-1-(3-(4-chloro-1-methyl-3-(methylsulfonamido)-1H-indazol-7-yl)-7-(4-fluoro-2-methylphenyl)-4-oxo-3,4-dihydroquinazolin-2-yl)-2-(3,5-difluorophenyl)ethyl)-2-((3bS,4aR)-3-(difluoromethyl)-5,5-difluoro-3b,4,4a,5-tetrahydro-1H-cyclopropa[3,4]cyclopenta[1,2-c]pyrazol-1-yl)acetamide]",> 1000 nM,1.7 nM
"O=C(Cn1nc(C(F)F)c2c1C(F)(F)[C@@H]1C[C@H]21)N[C@@H](Cc1cc(F)cc(F)c1)c1nc2cc(-c3cc(F)ccc3F)ccc2c(=O)n1-c1ccc(S(=O)(=O)N2CCOCC2)cc1 [Example 29, 2-((3bS,4aR)-3-(difluoromethyl)-5,5-difluoro-3b,4,4a,5-tetrahydro-1H-cyclopropa[3,4]cyclopenta[1,2-c]pyrazol-1-yl)-N-((S)-2-(3,5-difluorophenyl)-1-(7-(2,5-difluorophenyl)-3-(4-(morpholinosulfonyl)phenyl)-4-oxo-3,4-dihydroquinazolin-2-yl)ethyl)acetamide]",> 1000 nM,2.9 nM
"Cn1nc(NS(C)(=O)=O)c2c(Cl)ccc(-n3c([C@H](Cc4cc(F)cc(F)c4)NC(=O)Cn4nc(C(F)F)c5c4C(F)(F)[C@@H]4C[C@H]54)nc4cc(-c5ccc(C(=O)O)c(Cl)c5)ccc4c3=O)c21 (atropisomer, axis not shown; (aR)) [Example 75, 2-chloro-4-(3-(4-chloro-1-methyl-3-(methylsulfonamido)-1H-indazol-7-yl)-2-((S)-1-(2-((3bS,4aR)-3-(difluoromethyl)-5,5-difluoro-3b,4,4a,5-tetrahydro-1H-cyclopropa[3,4]cyclopenta[1,2-c]pyrazol-1-yl)acetamido)-2-(3,5-difluorophenyl)ethyl)-4-oxo-3,4-dihydroquinazolin-7-yl)benzoic acid]",> 1000 nM,29 nM
"Cn1nc(NS(C)(=O)=O)c2c(Cl)ccc(-n3c([C@H](Cc4cc(F)cc(F)c4)NC(=O)Cn4nc(C(F)F)c5c4C(F)(F)[C@@H]4C[C@H]54)nc4cc(-c5cccc(C(=O)O)c5)ccc4c3=O)c21 (atropisomer, axis not shown; (aR)) [Example 17, 3-(3-(4-chloro-1-methyl-3-(methylsulfonamido)-1H-indazol-7-yl)-2-((S)-1-(2-((3bS,4aR)-3-(difluoromethyl)-5,5-difluoro-3b,4,4a,5-tetrahydro-1H-cyclopropa[3,4]cyclopenta[1,2-c]pyrazol-1-yl)acetamido)-2-(3,5-difluorophenyl)ethyl)-4-oxo-3,4-dihydroquinazolin-7-yl)benzoic acid]",> 1000 nM,9.7 nM
"Cn1nc(NS(C)(=O)=O)c2c(Cl)ccc(-n3c([C@H](Cc4cc(F)cc(F)c4)NC(=O)Cn4nc(C(F)F)c5c4C(F)(F)[C@@H]4C[C@H]54)nc4cc(-c5ccc(Cl)cc5Cl)ccc4c3=O)c21 (atropisomer, axis not shown; (aR)) [Example 63, N-((S)-1-(3-(4-chloro-1-methyl-3-(methylsulfonamido)-1H-indazol-7-yl)-7-(2,4-dichlorophenyl)-4-oxo-3,4-dihydroquinazolin-2-yl)-2-(3,5-difluorophenyl)ethyl)-2-((3bS,4aR)-3-(difluoromethyl)-5,5-difluoro-3b,4,4a,5-tetrahydro-1H-cyclopropa[3,4]cyclopenta[1,2-c]pyrazol-1-yl)acetamide]",> 1000 nM,7 nM
"O=C(Cn1ccc(C2CC2)n1)N[C@@H](Cc1cc(F)cc(F)c1)c1nc2cc(-c3cccnc3)ccc2c(=O)n1-c1ccc(S(=O)(=O)N2CCOCC2)cc1 [Example 20, (S)-2-(3-cyclopropyl-1H-pyrazol-1-yl)-N-(2-(3,5-difluorophenyl)-1-(3-(4-(morpholinosulfonyl)phenyl)-4-oxo-7-(pyridin-3-yl)-3,4-dihydroquinazolin-2-yl)ethyl)acetamide]",> 1000 nM,3.7 nM
"COc1cccc(OC)c1-c1ccc2c(=O)n(-c3ccc(S(=O)(=O)N4CCOCC4)cc3)c([C@H](Cc3cc(F)cc(F)c3)NC(=O)Cn3nc(C(F)F)c4c3C(F)(F)[C@@H]3C[C@H]43)nc2c1 [Example 83, 2-((3bS,4aR)-3-(difluoromethyl)-5,5-difluoro-3b,4,4a,5-tetrahydro-1H-cyclopropa[3,4]cyclopenta[1,2-c]pyrazol-1-yl)-N-((S)-2-(3,5-difluorophenyl)-1-(7-(2,6-dimethoxyphenyl)-3-(4-(morpholinosulfonyl)phenyl)-4-oxo-3,4-dihydroquinazolin-2-yl)ethyl)acetamide]",> 1000 nM,5 nM
"COc1ccc(-c2ccc3c(=O)n(-c4ccc(Cl)c5c(NS(C)(=O)=O)nn(C)c45)c([C@H](Cc4cc(F)cc(F)c4)NC(=O)Cn4nc(C(F)F)c5c4C(F)(F)[C@@H]4C[C@H]54)nc3c2)cn1 (atropisomer, axis not shown; (aR)) [Example 58, N-((S)-1-(3-(4-chloro-1-methyl-3-(methylsulfonamido)-1H-indazol-7-yl)-7-(6-methoxypyridin-3-yl)-4-oxo-3,4-dihydroquinazolin-2-yl)-2-(3,5-difluorophenyl)ethyl)-2-((3bS,4aR)-3-(difluoromethyl)-5,5-difluoro-3b,4,4a,5-tetrahydro-1H-cyclopropa[3,4]cyclopenta[1,2-c]pyrazol-1-yl)acetamide]",> 1000 nM,0.34 nM
